In the supplement of paper PMC11208160:

Assay: recombinant barcode read abundance after kanamycin selection (control-corrected) (log10(CPM+1)); higher = more efficient recombination; sequences stand for … in AGTGCAGAGAAAATCGGCCAGTTTTCTCTGCCTGCAGTCCGCATGCCGT…AGATTTATGCAGCGGACTGCCTTTCTCCCAAAGTGATAAACCGGACAGTATCATGGACCGGTTTTCCCGGTAATCCGTATTTGCAAGGTTGGTTTCACT; site = the 11-nt target
How it was run: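 The screen was pooled in E. coli and paired targets with IS621 bridge RNA target-binding loops. Recombination efficiency is taken from barcode counts per million at recombinant junctions, averaged and adjusted against the control. Values, in the form log10(CPM+1), come from duplicate plating on chloramphenicol/ampicillin LB agar or on chloramphenicol/ampicillin/kanamycin with 0.1 mM IPTG.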
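Also: IS621 recombinase and bridge RNA in Escherichia coli cells.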

Row | Sequence | recombinant barcode read abundance (log10)
1 | GTTAGCCCTTGGGTTCTAACCTGTTGCAT (site GTTAGCCCTAT) | 0.928
2 | GTTAGCCCTTGGGTTCTAACCTGTTGCAT (site TCACAGACTCG) | 0.0525
3 | GTTAGCCCTTGGGTTCTAACCTGTTGCGG (site GTCAGCCCTCC) | 0.167
4 | GTTAGCCCTTGGGTTCTAACCTGTTGCGG (site GTTAGCCCTCC) | 1.79
5 | GTTCCTGCTTGGGTTCTAACCTGTTGCCT (site GTTCCTCCTAG) | 0.265
6 | GTTCCTGCTTGGGTTCTAACCTGTTGCCT (site GTTCCTGCTAG) | 0.86
7 | GTTCGAGCTTGGGTTCTAACCTGTTGCCT (site GTTAGAGCTAG) | 0.276
8 | GTTCGAGCTTGGGTTCTAACCTGTTGCCT (site GTTCGAGCTAG) | 1.61
9 | GTTCGAGCTTGGGTTCTAACCTGTTGCCT (site GTTGGAGCTAG) | 0.114
10 | GTTCGAGCTTGGGTTCTAACCTGTTGCCT (site GTTTGAGCTAG) | 0.153
11 | GTTCGAGCTTGGGTTCTAACCTGTTGCGG (site ATTCGAGCTCC) | 1.74
12 | GTTCGAGCTTGGGTTCTAACCTGTTGCGG (site GTTCGAGCTCC) | 2.49
13 | GTTGACCCTTGGGTTCTAACCTGTTGCCT (site GTAGACCCTCG) | 0.0195
14 | GTTGACCCTTGGGTTCTAACCTGTTGCCT (site GTTGACCCTAG) | 2.2
15 | GTTGGCCCTTGGGTTCTAACCTGTTGCCT (site GATGGCCCTAG) | 0.579
16 | GTTGGCCCTTGGGTTCTAACCTGTTGCCT (site GCTGGCCCTAG) | 0.306
17 | GTTGGCCCTTGGGTTCTAACCTGTTGCCT (site GGTGGCCCTAG) | 0.152
18 | GTTGGCCCTTGGGTTCTAACCTGTTGCCT (site GTTGGCCCTAG) | 1.94
19 | GTTGGTCCTTGGGTTCTAACCTGTTGCGT (site GTGAGTCCTAC) | 0.136
20 | GTTGGTCCTTGGGTTCTAACCTGTTGCGT (site GTTGGTCCTAC) | 2.76
21 | GTTTAAACTTGGGTTCTAACCTGTTGCCT (site GTTTAAACTAG) | 0.809
22 | GTTTAAACTTGGGTTCTAACCTGTTGCCT (site GTTTACGCTAG) | 0.0493
23 | GTTTACGCTTGGGTTCTAACCTGTTGCCT (site GTTTAAACTAG) | 0.0797
24 | GTTTACGCTTGGGTTCTAACCTGTTGCCT (site GTTTACGCTAG) | 1.96
25 | GTTTCTACTTGGGTTCTAACCTGTTGCTA (site ATTTCTACTTC) | 0.128
26 | GTTTCTACTTGGGTTCTAACCTGTTGCTA (site GTTTCTACTTA) | 0.0482

Row | Sequence | recombinant barcode read abundance (log10)
27 | GTTTCTTCTTGGGTTCTAACCTGTTGCCT (site GATTCTTCTAG) | 0.304
28 | GTTTCTTCTTGGGTTCTAACCTGTTGCCT (site GCTTCTTCTAG) | 0.0824
29 | GTTTCTTCTTGGGTTCTAACCTGTTGCCT (site GGTTCTTCTAG) | 0.171
30 | GTTTCTTCTTGGGTTCTAACCTGTTGCCT (site GTTTCTTCTAG) | 0.0189
31 | GTTTGATCTTGGGTTCTAACCTGTTGCCT (site GTTTGATCTAG) | 0.172
32 | GTTTGATCTTGGGTTCTAACCTGTTGCCT (site GTTTGCTCTAG) | 0.029
33 | GTTTGATCTTGGGTTCTAACCTGTTGCCT (site GTTTGGTCTAG) | 0.212
34 | GTTTGATCTTGGGTTCTAACCTGTTGCCT (site GTTTGTTCTAG) | 0
35 | GTTTGCCCTTGGGTTCTAACCTGTTGCTT (site GTTTGACCTAA) | 0.0376
36 | GTTTGCCCTTGGGTTCTAACCTGTTGCTT (site GTTTGCCCTAA) | 0.0681
37 | GTTTGCCCTTGGGTTCTAACCTGTTGCTT (site GTTTGGCCTAA) | 0.0442
38 | GTTTGCCCTTGGGTTCTAACCTGTTGCTT (site GTTTGTCCTAA) | 0.164
39 | GTTTGCTCTTGGGTTCTAACCTGTTGCCT (site GTTTGATCTAG) | 0.0882
40 | GTTTGCTCTTGGGTTCTAACCTGTTGCCT (site GTTTGCTCTAG) | 0.635
41 | GTTTGCTCTTGGGTTCTAACCTGTTGCCT (site GTTTGGTCTAG) | 0.416
42 | GTTTGCTCTTGGGTTCTAACCTGTTGCCT (site GTTTGTTCTAG) | 0.115
43 | GTTTGTCCTTGGGTTCTAACCTGTTGCTT (site GTTTGACCTAA) | 0.178
44 | GTTTGTCCTTGGGTTCTAACCTGTTGCTT (site GTTTGCCCTAA) | 0.0342
45 | GTTTGTCCTTGGGTTCTAACCTGTTGCTT (site GTTTGGCCTAA) | 0.644
46 | GTTTGTCCTTGGGTTCTAACCTGTTGCTT (site GTTTGTCCTAA) | 0.048
47 | TAAAGGCCTTGGGTTCTAACCTGTTGCTA (site CAAAGGTCTTA) | 0.218
48 | TAAAGGCCTTGGGTTCTAACCTGTTGCTA (site TAAAGGCCTTA) | 0.159
49 | TAAAGGGCTTGGGTTCTAACCTGTTGCCT (site TAAAGGGCTAG) | 0.4
50 | TAAAGGGCTTGGGTTCTAACCTGTTGCCT (site TAACGGGCTCG) | 0.0341
51 | TAAATAGCTTGGGTTCTAACCTGTTGCCT (site TAAATAGCTAG) | 0.881
52 | TAAATAGCTTGGGTTCTAACCTGTTGCCT (site TAATTAGCTAG) | 0.243

Row | Sequence | recombinant barcode read abundance (log10)
53 | TAAATCCCTTGGGTTCTAACCTGTTGCGA (site ACGGAATCTCG) | 0.0648
54 | TAAATCCCTTGGGTTCTAACCTGTTGCGA (site TAAATCCCTTC) | 1.22
55 | TAACATACTTGGGTTCTAACCTGTTGCAT (site TAACATACTAT) | 1.22
56 | TAACATACTTGGGTTCTAACCTGTTGCAT (site TAACCTACTAT) | 0.139
57 | TAACATACTTGGGTTCTAACCTGTTGCAT (site TAACGTACTAT) | 0.233
58 | TAACATACTTGGGTTCTAACCTGTTGCAT (site TAACTTACTAT) | 0.0391
59 | TAACCATCTTGGGTTCTAACCTGTTGCCT (site TAACCATCTAG) | 0.266
60 | TAACCATCTTGGGTTCTAACCTGTTGCCT (site TACCCATCTAG) | 0.0574
61 | TAACCATCTTGGGTTCTAACCTGTTGCCT (site TAGCCATCTAG) | 0.0156
62 | TAACCATCTTGGGTTCTAACCTGTTGCCT (site TATCCATCTAG) | 0.0811
63 | TAACCTGCTTGGGTTCTAACCTGTTGCCT (site TAACCTACTAG) | 0.532
64 | TAACCTGCTTGGGTTCTAACCTGTTGCCT (site TAACCTCCTAG) | 0.0336
65 | TAACCTGCTTGGGTTCTAACCTGTTGCCT (site TAACCTGCTAG) | 0.889
66 | TAACCTGCTTGGGTTCTAACCTGTTGCCT (site TAACCTTCTAG) | 0.624
67 | TAACCTTCTTGGGTTCTAACCTGTTGCCT (site TAACCTACTAG) | 0
68 | TAACCTTCTTGGGTTCTAACCTGTTGCCT (site TAACCTCCTAG) | 0.019
69 | TAACCTTCTTGGGTTCTAACCTGTTGCCT (site TAACCTGCTAG) | 0.00987
70 | TAACCTTCTTGGGTTCTAACCTGTTGCCT (site TAACCTTCTAG) | 0.472
71 | TAAGACCCTTGGGTTCTAACCTGTTGCCT (site TAAGACCCTAG) | 2.33
72 | TAAGACCCTTGGGTTCTAACCTGTTGCCT (site TCAGACCCTAG) | 0.454
73 | TAAGACGCTTGGGTTCTAACCTGTTGCCT (site TAAGACGCTAG) | 2.33
74 | TAAGACGCTTGGGTTCTAACCTGTTGCCT (site TACGACGCTAG) | 0.0565
75 | TAAGACGCTTGGGTTCTAACCTGTTGCCT (site TAGGACGCTAG) | 0.729
76 | TAAGACGCTTGGGTTCTAACCTGTTGCCT (site TATGACGCTAG) | 1.05
77 | TAAGGTCCTTGGGTTCTAACCTGTTGCTT (site AGGTCAACTCG) | 0.224
